Source: patent US10966955B2, “Ocular drug delivery system and uses thereof” (Chang Gung University, priority 2020, dated 2021)

How the values were obtained:
[1] = In vitro drug release of the ocular drug delivery system in hyaluronidase solution (HPLC); type: physicochemical; conditions: for release rate compared with the other drugs (in words): hyaluronidase solution, EGCG in sPLA2 solution
Procedure: A suitable amount of the ocular drug delivery system obtained in Example 1 was immersed in 1 mL of a sPLA2 solution (containing 0.1 mg/mL sPLA2), followed by incubation at 37° C. with reciprocal shaking (100 rpm) in a thermostatically controlled water bath for a designated time period ranging from 0 minutes to 168 hours. Sample solutions were taken at each time point of 0, 1, 2, 3, 4, 5, 12, 24, 48, 72, 96, 120, 144, and 168 hours.
The sample solutions thus obtained were centrifuged at 1000 rpm for 3 minutes. The resultant supernatants were collected and then subjected to high performance liquid chromatography (HPLC) analysis using a L-2400 UV detector, a L-2130 pump (Hitachi, Tokyo, Japan), and a Mightysil RP-18 column (Kanto Chemical, Tokyo, Japan).
The HPLC operating conditions applied were described as follows. The mobile phase was 90% water with 0.1% trifluroacetic acid and 10% acetonitrile, and the flow rate of the mobile phase was 1 mL/min. The injection volume was 10 μL. The elution peak was detected by measuring absorbance at 280 nm (for EGCG), 305 nm (for β-1,3 glucan), and 274 nm (for SB-431542), respectively.
The release profile of β-1,3-glucan from the first HA-SH nanoparticles and the release profile of SB-431542 from the second HA-SH nanoparticles were evaluated substantially according to the procedures as described above, except that the ocular drug delivery system was immersed in 1 mL of a hyaluronidase solution (containing 100 U/mL hyaluronidase).

SIRC cells = test: Cell migration assay of SIRC cells; type: cell-based, rabbit; conditions: cell-free gap about 180 μm, 18 hours
Procedure: (b) Rabbit corneal epithelial (SIRC) cells (BCRC NO: 60093) were obtained from the Bioresources Collection and Research Center (BCRC) of Food Industry Research and Development Institute (FIRDI) (Hsinchu, Taiwan). The SIRC cells were grown in a regular growth medium containing minimum essential medium (MEM) and 10% fetal bovine serum (FBS), and were cultivated in a humidified atmosphere (5% CO2, 37° C.).
A cell culture insert was placed into each well of a 12-well culture plate. The SIRC cells were seeded into the culture tanks on both sides of the culture insert at a cell number of 1×10^4 cells and then incubated overnight to allow cell attachment. Thereafter, the culture insert was removed to create a cell-free gap with a width of about 180 μm, and then the liquid in each well was removed. Each well was washed three times with phosphate-buffered saline (PBS), followed by addition of 200 μL of Eagle's minimum essential medium (MEM). […]
At 0 and 18 hours after incubation, the cell migration profile of the SIRC cells in each group was photographed using an inverted phase contrast microscope (Nikon, Melville, N.Y., USA), and the width of the cell-free gap was measured by ImageJ software. The cell migration rate (%) was calculated using the following Equation (I): Cell migration rate (%)=[A−B)/A]×100 (I) […]

[2] = In vitro drug release of the ocular drug delivery system in sPLA2 solution (HPLC); type: physicochemical
Procedure: A suitable amount of the ocular drug delivery system obtained in Example 1 was immersed in 1 mL of a sPLA2 solution (containing 0.1 mg/mL sPLA2), followed by incubation at 37° C. with reciprocal shaking (100 rpm) in a thermostatically controlled water bath for a designated time period ranging from 0 minutes to 168 hours. Sample solutions were taken at each time point of 0, 1, 2, 3, 4, 5, 12, 24, 48, 72, 96, 120, 144, and 168 hours. The sample solutions thus obtained were centrifuged at 1000 rpm for 3 minutes. The resultant supernatants were collected and then subjected to high performance liquid chromatography (HPLC) analysis using a L-2400 UV detector, a L-2130 pump (Hitachi, Tokyo, Japan), and a Mightysil RP-18 column (Kanto Chemical, Tokyo, Japan). The HPLC operating conditions applied were described as follows. The mobile phase was 90% water with 0.1% trifluroacetic acid and 10% acetonitrile, and the flow rate of the mobile phase was 1 mL/min. The injection volume was 10 μL. The elution peak was detected by measuring absorbance at 280 nm (for EGCG), 305 nm (for β-1,3 glucan), and 274 nm (for SB-431542), respectively. The amount of EGCG released from the sPLA2 hydrolysable liposomes was calculated with reference to a standard calibration curve of EGCG. Results from five independent measurements were averaged and further used to calculate the cumulative released amount of EGCG.

Compound | cumulative release rate of SB-431542 from the second HA-SH nanoparticles ([1]; at the 160th hour after initiation of the release test, 100 U/mL hyaluronidase solution, 37° C.) | release rate compared with the other drugs (in words) [1] | cumulative release rate of β-1,3 glucan from the first HA-SH nanoparticles ([1]; within 70 hours after initiation of the release test, 100 U/mL hyaluronidase solution, 37° C.) | Cell migration rate (%) (SIRC cells) | release of EGCG (in words) ([2]; within 8 hours following initiation of the release test, sPLA2 solution) | cumulative release rate of EGCG from the sPLA2 hydrolysable liposomes ([2]; within 20 hours, 0.1 mg/mL sPLA2 solution, 37° C.)
NC(=O)c1ccc(-c2nc(-c3ccc4c(c3)OCO4)c(-c3ccccn3)[nH]2)cc1 [SB-431542] | 80% | slower than those of EGCG and β-1,3 glucan | – | – | – | –
β-1,3-glucan [β-1,3 glucan] | – | slower than that of EGCG | 90% | 73% | – | –
O=C(O[C@@H]1Cc2c(O)cc(O)cc2O[C@@H]1c1cc(O)c(O)c(O)c1)c1cc(O)c(O)c(O)c1 [EGCG, epigallocatechin gallate] | – | – | – | – | released in a large amount | 90%
